Assay results as given in patent US8609661B2, “Pyrimido-pyrrolo-quinoxalinedione inhibitors of cystic fibrosis transmembrane conductance regulator protein and uses therefor” (The Regents of the University of California, priority 2009, dated 2013).
Where two headings read alike, the source gives them in different places.

Columns and labels:
[1] = biological target: CFTR (Homo sapiens, UniProt P13569); settings: literature; depending on cell type and membrane potential; read-out: IC50 for CFTR chloride conductance block; cited from earlier work
[2] = biological target: T1, human wildtype CFTR (Homo sapiens, UniProt P13569); assay: Fluorescence platereader assay of CFTR-mediated iodide influx (YFP quenching) in FRT cells; format: cell-based; settings: for inhibition at 5 µM / inhibition at 25 µM: FRT; for IC50: apparent IC50 from concentration-inhibition data, fluorescence platereader assay
T1 construct: expressed in transfected cells; host or cells: Fischer rat thyroid (FRT) cells
In short: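 Fischer rat thyroid cells co-expressing human wildtype CFTR and the YFP-H148Q/1152L halide sensor were seeded at 20,000 cells per well in 96-well black-walled plates and assayed 48 h later at confluence. After PBS washes and a 15 min incubation, CFTR was maximally activated with an agonist mixture. Fluorescence was recorded for 2 s before and 10 s after adding 160 μL iodide-substituted PBS, and iodide influx rates came from non-linear regression.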

[3] = Table 2, screening, 5 μM, read-out: % Inhibition at 5 μM
[4] = Table 2, screening, 25 μM, read-out: % Inhibition at 25 μM
[5] = read-out: % inhibition at 25/5 μM (5 μM value), Table 1, 5 μM compound

T1 sequence (P13569 whole entry): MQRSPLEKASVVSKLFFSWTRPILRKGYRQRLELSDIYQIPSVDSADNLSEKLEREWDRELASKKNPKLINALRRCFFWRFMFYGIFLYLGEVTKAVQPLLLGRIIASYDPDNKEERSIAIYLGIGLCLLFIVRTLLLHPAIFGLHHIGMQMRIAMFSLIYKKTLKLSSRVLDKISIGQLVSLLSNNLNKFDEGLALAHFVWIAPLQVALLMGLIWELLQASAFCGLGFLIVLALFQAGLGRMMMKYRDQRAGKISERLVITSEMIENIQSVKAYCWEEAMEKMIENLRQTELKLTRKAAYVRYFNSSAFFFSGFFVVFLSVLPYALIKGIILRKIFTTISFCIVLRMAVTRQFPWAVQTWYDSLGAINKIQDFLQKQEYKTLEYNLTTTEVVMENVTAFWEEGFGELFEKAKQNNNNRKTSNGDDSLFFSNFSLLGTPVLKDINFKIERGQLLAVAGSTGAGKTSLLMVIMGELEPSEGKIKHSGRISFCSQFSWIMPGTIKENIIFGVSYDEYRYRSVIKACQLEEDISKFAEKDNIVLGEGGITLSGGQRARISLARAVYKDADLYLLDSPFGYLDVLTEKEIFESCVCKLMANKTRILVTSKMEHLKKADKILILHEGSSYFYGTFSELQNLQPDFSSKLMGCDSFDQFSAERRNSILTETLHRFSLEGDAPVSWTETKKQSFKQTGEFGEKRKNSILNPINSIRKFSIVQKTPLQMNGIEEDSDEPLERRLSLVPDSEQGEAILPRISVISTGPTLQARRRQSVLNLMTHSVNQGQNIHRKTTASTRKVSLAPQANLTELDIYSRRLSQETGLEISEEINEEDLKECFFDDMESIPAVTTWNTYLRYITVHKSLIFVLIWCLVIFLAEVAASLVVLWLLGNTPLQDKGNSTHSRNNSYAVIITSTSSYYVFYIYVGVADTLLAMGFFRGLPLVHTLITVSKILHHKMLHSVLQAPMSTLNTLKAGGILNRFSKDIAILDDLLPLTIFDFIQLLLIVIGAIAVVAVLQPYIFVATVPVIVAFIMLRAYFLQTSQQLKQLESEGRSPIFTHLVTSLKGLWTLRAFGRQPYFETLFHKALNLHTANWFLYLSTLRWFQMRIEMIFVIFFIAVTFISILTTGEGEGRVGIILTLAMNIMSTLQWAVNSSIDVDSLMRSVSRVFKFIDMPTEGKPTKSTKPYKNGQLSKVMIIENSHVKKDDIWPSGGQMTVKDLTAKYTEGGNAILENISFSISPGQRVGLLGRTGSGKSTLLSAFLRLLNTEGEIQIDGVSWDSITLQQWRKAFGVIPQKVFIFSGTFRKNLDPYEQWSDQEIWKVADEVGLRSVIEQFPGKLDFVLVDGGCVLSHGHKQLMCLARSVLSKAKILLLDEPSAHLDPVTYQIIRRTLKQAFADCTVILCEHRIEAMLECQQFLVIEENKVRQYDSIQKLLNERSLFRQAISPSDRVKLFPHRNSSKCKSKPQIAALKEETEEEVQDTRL
Chain of CFTR (P13569 whole entry, species assumed): as the sequence (P13569 whole entry) above

Row | SMILES | inhibition at 5 µM [2, 3] [%] | inhibition at 25 µM [2, 4] [%] | inhibition at 5 µM [2, 5] [%] | inhibition at 25 µM ([2]; read-out: % inhibition at 25/5 μM (25 μM value), Table 1, 25 μM compound) [%] | IC50 [2] [nM] | IC50 [1] [nM]
1 | O=C(CNc1ccc2ccccc2c1)N/N=C/c1cc(Br)c(O)c(Br)c1O [GlyH-101] | – | – | – | – | – | ~5000
2 | COc1ccc(-c2c3c(=O)n(C)c(=O)n(C)c3c3n2-c2ccccc2NC3c2ccccc2)cc1 (centres unmarked) | < 10 | 39 | – | – | – | –
3 | Cc1ccccc1-c1c2c(=O)n(C)c(=O)n(C)c2c2n1-c1ccccc1NC2c1cccc(O)c1O (centres unmarked) | < 10 | 30 | – | – | – | –
4 | COc1ccc(O)c(C2Nc3ccccc3-n3c(-c4ccccc4C)c4c(=O)n(C)c(=O)n(C)c4c32)c1 (centres unmarked) | < 10 | 38 | – | – | – | –
5 | CCOc1cc(C2Nc3ccccc3-n3c(-c4ccccc4)c4c(=O)n(C)c(=O)n(C)c4c32)ccc1O (centres unmarked) | < 10 | 47 | – | – | – | –
6 | COc1ccccc1C1Nc2cc(C)c(C)cc2-n2c(-c3ccccc3)c3c(=O)n(C)c(=O)n(C)c3c21 (centres unmarked) | < 10 | 47 | – | – | – | –
7 | COc1ccc(C2Nc3ccccc3-n3c(-c4ccccc4F)c4c(=O)n(C)c(=O)n(C)c4c32)cc1 (centres unmarked) | < 10 | 33 | – | – | – | –

Continued, in another order:

Row | inhibition at 5 µM [2, 3] [%] | inhibition at 25 µM [2, 4] [%] | inhibition at 5 µM [2, 5] [%] | inhibition at 25 µM ([2]; read-out: % inhibition at 25/5 μM (25 μM value), Table 1, 25 μM compound) [%] | IC50 [2] [nM] | SMILES | IC50 [1] [nM]
8 | 30 | 74 | – | – | – | Cn1c(=O)c2c(-c3ccccc3)n3c(c2n(C)c1=O)C(c1cccc(O)c1)Nc1ccccc1-3 (centres unmarked) [PPQ-240, 7,9-Dimethyl-11-phenyl-6-(3-hydroxyphenyl)-5,6-dihydro-pyrimido[4′,5′-3,4]pyrrolo[1,2-a]quinoxaline-8,10-(7H,9H)-dione] | –
9 | 64 | 96 | 64 | 96 | 2000 | Cc1ccccc1-c1c2c(=O)n(C)c(=O)n(C)c2c2n1-c1ccccc1NC2c1cccc([N+](=O)[O-])c1 (centres unmarked) [PPQ-213, 7,9-Dimethyl-11-(2-methylphenyl)-6-(3-nitrophenyl)-5,6-dihydro-pyrimido[4′,5′-3,4]pyrrolo[1,2-a]quinoxaline-8,10-(7H,9H)-dione] | –
10 | 16 | 74 | – | – | – | COc1cc(C2Nc3ccccc3-n3c(-c4cccc(C)c4)c4c(=O)n(C)c(=O)n(C)c4c32)ccc1O (centres unmarked) [PPQ-241, 7,9-Dimethyl-11-(3-methylphenyl)-6-(3-methoxy-4-hydroxyphenyl)-5,6-dihydro-pyrimido[4′,5′-3,4]pyrrolo[1,2-a]quinoxaline-8,10-(7H,9H)-dione] | –
11 | 29 | 79 | – | – | – | Cc1cccc(-c2c3c(=O)n(C)c(=O)n(C)c3c3n2-c2ccccc2NC3c2cccs2)c1 (centres unmarked) [PPQ-114, 7,9-Dimethyl-11-(3-methylphenyl)-6-(thienyl-2-yl)-5,6-dihydro-pyrimido[4′,5′-3,4]pyrrolo[1,2-a]quinoxaline-8,10-(7H,9H)-dione] | –
12 | 32 | 56 | – | – | – | Cn1c(=O)c2c(-c3ccccc3F)n3c(c2n(C)c1=O)C(c1ccc(F)cc1F)Nc1ccccc1-3 (centres unmarked) [PPQ-244, 7,9-Dimethyl-11-(2-fluorophenyl)-6-(2,4-difluorophenyl)-5,6-dihydro-pyrimido[4′,5′-3,4]pyrrolo[1,2-a]quinoxaline-8,10-(7H,9H)-dione] | –
13 | – | – | – | – | 2500 | Cn1c(=O)c2c(-c3ccccc3)n3c(c2n(C)c1=O)C(c1ccccc1)Nc1ccccc1-3 (centres unmarked) [PPQ-206, 7,9-Dimethyl-11-phenyl-6-phenyl-5,6-dihydro-pyrimido[4′,5′-3,4]pyrrolo[1,2-a]quinoxaline-8,10-(7H,9H)-dione] | –
14 | 50 | > 95 | – | – | – | Cc1ccccc1-c1c2c(=O)n(C)c(=O)n(C)c2c2n1-c1ccccc1NC2c1cccc(F)c1F (centres unmarked) [PPQ-221, 7,9-Dimethyl-11-(2-methylphenyl)-6-(2,3-difluorophenyl)-5,6-dihydro-pyrimido[4′,5′-3,4]pyrrolo[1,2-a]quinoxaline-8,10-(7H,9H)-dione] | –
15 | 73 | > 95 | 73 | – | 1700 | COc1cccc(C2Nc3ccccc3-n3c(-c4cccc(C)c4)c4c(=O)n(C)c(=O)n(C)c4c32)c1 (centres unmarked) [PPQ-210, 7,9-Dimethyl-11-(3-methylphenyl)-6-(3-methoxyphenyl)-5,6-dihydro-pyrimido[4′,5′-3,4]pyrrolo[1,2-a]quinoxaline-8,10-(7H,9H)-dione] | –
16 | 26 | 63 | – | – | – | Cc1cccc(-c2c3c(=O)n(C)c(=O)n(C)c3c3n2-c2ccccc2NC3c2ccc3c(c2)OCO3)c1 (centres unmarked) [PPQ-302, 7,9-Dimethyl-11-(3-methylphenyl)-6-(1,3-benzodioxol-5-yl)-5,6-dihydro-pyrimido[4′,5′-3,4]pyrrolo[1,2-a]quinoxaline-8,10-(7H,9H)-dione] | –
17 | > 95 | > 95 | – | – | 700 | Cc1cccc(-c2c3c(=O)n(C)c(=O)n(C)c3c3n2-c2ccccc2NC3c2ccc(C)o2)c1 (centres unmarked) [PPQ-101, 7,9-Dimethyl-11-(3-methylphenyl)-6-(5-methylfuran-2-yl)-5,6-dihydro-pyrimido[4′,5′-3,4]pyrrolo[1,2-a]quinoxaline-8,10-(7H,9H)-dione] | –
